Measured values published in patent US20230085307A1, “PYRIDAZINONE COMPOUND AND HERBICIDE” (NISSAN CHEMICAL CORPORATION, priority 2019, published 2023).

What was measured:
chickweed [1] = assay: Test Example 4: herbicidal effect by soil treatment (Table 19, symbol P); format: in vivo, common chickweed (Stellaria media); details: amount of applied herbicide 320 g/ha
Outline: (§1)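 Herbicidal effect was rated 3 weeks after treatment, using the scoring criteria of an earlier test. The compound, formulated as an emulsion and diluted in water to a set herbicide amount, had been sprayed uniformly on soil over freshly sown seeds. Growth took place in a greenhouse at 25° C. to 30° C.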

wild oat [2] = assay: Test Example 4: herbicidal effect by soil treatment (Table 19, symbol I); format: in vivo, wild oat (Avena fatua); details: amount of applied herbicide 320 g/ha
Outline: as §1

persian speedwell [3] = assay: Test Example 4: herbicidal effect by soil treatment (Table 19, symbol R); format: in vivo, Persian speedwell (Veronica persica); details: amount of applied herbicide 320 g/ha
Outline: as §1

barnyard grass [4] = assay: Test Example 3: herbicidal effect by foliage application, Wagner pot (Table 18, symbol H); format: in vivo, barnyard grass (Echinochloa crus-galli); details: amount of applied herbicide 320 g/ha
Outline: (§2)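 Plants were sown in alluvial soil held under 0.1–0.5 cm standing water and grown 14 days in a greenhouse at 25–30 °C. An emulsifiable formulation, water-diluted to the set dose, was then sprayed onto the foliage, and effects were scored three weeks later using previously defined criteria.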

persian speedwell [5] = assay: Test Example 5: herbicidal effect by foliage application, plastic box (Table 20, symbol R); format: in vivo, Persian speedwell (Veronica persica); details: foliage application, 320 g/ha, evaluated three weeks after application
Outline: (§3)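 Foliar spray test: emulsion formulation diluted in water to a set application rate, sprayed onto 14-day-old plants raised in diluvial soil at 25° C to 30° C under glass. Both herbicidal effect and crop effect rated visually three weeks later.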

lambsquarters [6] = assay: Test Example 4: herbicidal effect by soil treatment (Table 19, symbol O); format: in vivo, lambsquarters (Chenopodium album); details: amount of applied herbicide 320 g/ha
Outline: as §1

Italian ryegrass [7] = assay: Test Example 5: herbicidal effect by foliage application, plastic box (Table 20, symbol K); format: in vivo, Italian ryegrass (Lolium multiflorum); details: foliage application, 320 g/ha, evaluated three weeks after application
Outline: as §3

windgrass [8] = assay: Test Example 5: herbicidal effect by foliage application, plastic box (Table 20, symbol L); format: in vivo, windgrass (Apera spica-venti); details: foliage application, 320 g/ha, evaluated three weeks after application
Outline: as §3

redroot pigweed [9] = assay: Test Example 5: herbicidal effect by foliage application, plastic box (Table 20, symbol N); format: in vivo, redroot pigweed (Amaranthus retroflexus); details: foliage application, 320 g/ha, evaluated three weeks after application
Outline: as §3

velvetleaf [10] = assay: Test Example 4: herbicidal effect by soil treatment (Table 19, symbol M); format: in vivo, velvetleaf (Abutilon theophrasti); details: amount of applied herbicide 320 g/ha
Outline: as §1

rice flat sedge = assay: Test Example 3: herbicidal effect by foliage application, Wagner pot (Table 18, symbol E); format: in vivo, rice flat sedge (Cyperus iria); details: amount of applied herbicide 320 g/ha
Outline: as §2

redroot pigweed [11] = assay: Test Example 4: herbicidal effect by soil treatment (Table 19, symbol N); format: in vivo, redroot pigweed (Amaranthus retroflexus); details: amount of applied herbicide 320 g/ha
Outline: as §1

blackgrass [12] = assay: Test Example 4: herbicidal effect by soil treatment (Table 19, symbol J); format: in vivo, blackgrass (Alopecurus myosuroides); details: amount of applied herbicide 320 g/ha
Outline: as §1

green foxtail [13] = assay: Test Example 5: herbicidal effect by foliage application, plastic box (Table 20, symbol G); format: in vivo, green foxtail (Setaria viridis); details: foliage application, 320 g/ha, evaluated three weeks after application
Outline: as §3

velvetleaf [14] = assay: Test Example 5: herbicidal effect by foliage application, plastic box (Table 20, symbol M); format: in vivo, velvetleaf (Abutilon theophrasti); details: foliage application, 320 g/ha, evaluated three weeks after application
Outline: as §3

Chinese sprangletop = assay: Test Example 3: herbicidal effect by foliage application, Wagner pot (Table 18, symbol D); format: in vivo, chinese sprangletop (Leptochloa chinensis); details: amount of applied herbicide 320 g/ha
Outline: as §2

southern crabgrass [15] = assay: Test Example 4: herbicidal effect by soil treatment (Table 19, symbol F); format: in vivo, southern crabgrass (Digitaria ciliaris); details: amount of applied herbicide 320 g/ha
Outline: as §1

lambsquarters [16] = assay: Test Example 5: herbicidal effect by foliage application, plastic box (Table 20, symbol O); format: in vivo, lambsquarters (Chenopodium album); details: foliage application, 320 g/ha, evaluated three weeks after application
Outline: as §3

wild oat [17] = assay: Test Example 5: herbicidal effect by foliage application, plastic box (Table 20, symbol I); format: in vivo, wild oat (Avena fatua); details: foliage application, 320 g/ha, evaluated three weeks after application
Outline: as §3

green foxtail [18] = assay: Test Example 4: herbicidal effect by soil treatment (Table 19, symbol G); format: in vivo, green foxtail (Setaria viridis); details: amount of applied herbicide 320 g/ha
Outline: as §1

Italian ryegrass [19] = assay: Test Example 4: herbicidal effect by soil treatment (Table 19, symbol K); format: in vivo, Italian ryegrass (Lolium multiflorum); details: amount of applied herbicide 320 g/ha
Outline: as §1

southern crabgrass [20] = assay: Test Example 5: herbicidal effect by foliage application, plastic box (Table 20, symbol F); format: in vivo, southern crabgrass (Digitaria ciliaris); details: foliage application, 320 g/ha, evaluated three weeks after application
Outline: as §3

windgrass [21] = assay: Test Example 4: herbicidal effect by soil treatment (Table 19, symbol L); format: in vivo, windgrass (Apera spica-venti); details: amount of applied herbicide 320 g/ha
Outline: as §1

barnyard grass [22] = assay: Test Example 5: herbicidal effect by foliage application, plastic box (Table 20, symbol H); format: in vivo, barnyard grass (Echinochloa crus-galli); details: foliage application, 320 g/ha, evaluated three weeks after application
Outline: as §3

chickweed [23] = assay: Test Example 5: herbicidal effect by foliage application, plastic box (Table 20, symbol P); format: in vivo, common chickweed (Stellaria media); details: foliage application, 320 g/ha, evaluated three weeks after application
Outline: as §3

barnyard grass [24] = assay: Test Example 4: herbicidal effect by soil treatment (Table 19, symbol H); format: in vivo, barnyard grass (Echinochloa crus-galli); details: amount of applied herbicide 320 g/ha
Outline: as §1

blackgrass [25] = assay: Test Example 5: herbicidal effect by foliage application, plastic box (Table 20, symbol J); format: in vivo, blackgrass (Alopecurus myosuroides); details: foliage application, 320 g/ha, evaluated three weeks after application
Outline: as §3

| SMILES | P: chickweed, herbicidal effect rating (chickweed [1]) | I: wild oat, herbicidal effect rating (wild oat [2]) | R: persian speedwell, herbicidal effect rating (persian speedwell [3]) | herbicidal effect on H: barnyard grass (barnyard grass [4]) | herbicidal effect on R: persian speedwell (persian speedwell [5]) | O: lambsquarters, herbicidal effect rating (lambsquarters [6]) | herbicidal effect on K: Italian ryegrass (Italian ryegrass [7]) | herbicidal effect on L: windgrass (windgrass [8]) | herbicidal effect on N: redroot pigweed (redroot pigweed [9]) | M: velvetleaf, herbicidal effect rating (velvetleaf [10]) | herbicidal effect on E: rice flat sedge (rice flat sedge) | N: redroot pigweed, herbicidal effect rating (redroot pigweed [11]) | J: blackgrass, herbicidal effect rating (blackgrass [12]) | herbicidal effect on G: green foxtail (green foxtail [13]) | herbicidal effect on M: velvetleaf (velvetleaf [14]) | herbicidal effect on D: Chinese sprangletop (Chinese sprangletop) | F: southern crabgrass, herbicidal effect rating (southern crabgrass [15]) | herbicidal effect on O: lambsquarters (lambsquarters [16]) | herbicidal effect on I: wild oat (wild oat [17]) | G: green foxtail, herbicidal effect rating (green foxtail [18]) | other results |
| --- | --- | --- | --- | --- | --- | --- | --- | --- | --- | --- | --- | --- | --- | --- | --- | --- | --- | --- | --- | --- | --- |
| Cc1ccc2sc(-c3ccc(F)cc3)c(-c3c(O)c(C)nn(C)c3=O)c2c1 [2-134] | 4 (Herbicidal rate of 70% or more and less than 90%) | 0 (Herbicidal rate of 5% or less (almost no effect)) | 4 (Herbicidal rate of 70% or more and less than 90%) | 3 (Herbicidal rate of 40% or more and less than 70%) | 5 (Herbicidal rate of 90% or more (almost completely withered)) | 5 (Herbicidal rate of 90% or more (almost completely withered)) | 3 (Herbicidal rate of 40% or more and less than 70%) | 0 (Herbicidal rate of 5% or less (almost no effect)) | 5 (Herbicidal rate of 90% or more (almost completely withered)) | 0 (Herbicidal rate of 5% or less (almost no effect)) | 5 (Herbicidal rate of 90% or more (almost completely withered)) | 5 (Herbicidal rate of 90% or more (almost completely withered)) | 0 (Herbicidal rate of 5% or less (almost no effect)) | 0 (Herbicidal rate of 5% or less (almost no effect)) | 5 (Herbicidal rate of 90% or more (almost completely withered)) | 0 (Herbicidal rate of 5% or less (almost no effect)) | 2 (Herbicidal rate of 20% or more and less than 40%) | 4 (Herbicidal rate of 70% or more and less than 90%) | 0 (Herbicidal rate of 5% or less (almost no effect)) | 0 (Herbicidal rate of 5% or less (almost no effect)) | K: Italian ryegrass, herbicidal effect rating (Italian ryegrass [19]): 0 (Herbicidal rate of 5% or less (almost no effect)); herbicidal effect on F: southern crabgrass (southern crabgrass [20]): 0 (Herbicidal rate of 5% or less (almost no effect)); L: windgrass, herbicidal effect rating (windgrass [21]): 0 (Herbicidal rate of 5% or less (almost no effect)); herbicidal effect on H: barnyard grass (barnyard grass [22]): 0 (Herbicidal rate of 5% or less (almost no effect)); herbicidal effect on P: chickweed (chickweed [23]): 5 (Herbicidal rate of 90% or more (almost completely withered)); H: barnyard grass, herbicidal effect rating (barnyard grass [24]): 0 (Herbicidal rate of 5% or less (almost no effect)); herbicidal effect on J: blackgrass (blackgrass [25]): 0 (Herbicidal rate of 5% or less (almost no effect)) |
| Cc1ccc(-c2sc3ccc(C)cc3c2-c2c(O)c(C)nn(C)c2=O)cc1 [2-136] | 4 (Herbicidal rate of 70% or more and less than 90%) | 0 (Herbicidal rate of 5% or less (almost no effect)) | 5 (Herbicidal rate of 90% or more (almost completely withered)) | 2 (Herbicidal rate of 20% or more and less than 40%) | 5 (Herbicidal rate of 90% or more (almost completely withered)) | 5 (Herbicidal rate of 90% or more (almost completely withered)) | 5 (Herbicidal rate of 90% or more (almost completely withered)) | 0 (Herbicidal rate of 5% or less (almost no effect)) | 5 (Herbicidal rate of 90% or more (almost completely withered)) | 0 (Herbicidal rate of 5% or less (almost no effect)) | 5 (Herbicidal rate of 90% or more (almost completely withered)) | 5 (Herbicidal rate of 90% or more (almost completely withered)) | 0 (Herbicidal rate of 5% or less (almost no effect)) | 0 (Herbicidal rate of 5% or less (almost no effect)) | 5 (Herbicidal rate of 90% or more (almost completely withered)) | 0 (Herbicidal rate of 5% or less (almost no effect)) | 3 (Herbicidal rate of 40% or more and less than 70%) | 4 (Herbicidal rate of 70% or more and less than 90%) | 0 (Herbicidal rate of 5% or less (almost no effect)) | 0 (Herbicidal rate of 5% or less (almost no effect)) | K: Italian ryegrass, herbicidal effect rating (Italian ryegrass [19]): 3 (Herbicidal rate of 40% or more and less than 70%); herbicidal effect on F: southern crabgrass (southern crabgrass [20]): 0 (Herbicidal rate of 5% or less (almost no effect)); L: windgrass, herbicidal effect rating (windgrass [21]): 0 (Herbicidal rate of 5% or less (almost no effect)); herbicidal effect on H: barnyard grass (barnyard grass [22]): 0 (Herbicidal rate of 5% or less (almost no effect)); herbicidal effect on P: chickweed (chickweed [23]): 5 (Herbicidal rate of 90% or more (almost completely withered)); H: barnyard grass, herbicidal effect rating (barnyard grass [24]): 0 (Herbicidal rate of 5% or less (almost no effect)); herbicidal effect on J: blackgrass (blackgrass [25]): 0 (Herbicidal rate of 5% or less (almost no effect)) |
